Assay results reported in patent US20080200405A1, “Drug Resistance Reversal In Neoplastic Disease” (priority 2007, published 2008).

What was measured:
[1] = system: TNFα; experiment: Measurement of LPS Induced-TNFα in THP-1 Cells; assay type: cell-based, human; settings: compound 10 uM; 5 ng/mL LPS
[2] = system: bFGF-induced angiogenesis in the CAM model; experiment: bFGF (FGF2)-stimulated CAM model; assay type: in vivo, chicken; settings: for Mean % Inhibition ± SD / Mean Branch points ± SEM: bFGF 1 μg/ml
[3] = In vitro stability of OT-551 in rat plasma; assay type: in vitro ADME
Description: (§1) The active metabolite of OT-551 (Cyclopropanecarboxylic acid 1-hydroxy-2,2,6,6-tetramethyl-piperidin-4-yl ester) is TP-H. The objective of this analysis was to determine the in vitro half-life of OT-551 in rat, rabbit, dog, and human plasma under standardized incubation conditions.
(§2) OT-551 was incubated with pooled rat, rabbit, dog, and human plasma for various times under standardized incubation conditions. Pre-labeled tubes containing pooled plasma from rats, rabbits, dogs, and humans were pre-incubated in a shaking 37° C. water bath. A OT-551 solution was added to the tubes at a final concentration of 1000 ng/mL. Time zero samples (n=5) were immediately removed and transferred into tubes containing a stabilizer solution (DTPA, acetylcysteine and ascorbic acid), the LC/MS/MS assay internal standard and methanol. […] The tubes were vortexed, placed on ice, followed by centrifugation. One hundred-μL aliquots of the supernatant were transferred into HPLC sample vials. Additional tubes (n=5 at each time point) were incubated for 5, 10, 20, 30, 60, 120, and 240 minutes at 37° C. and thereafter processed. The amount of OT-551 and TP-H in each incubated sample was quantified using validated LC/MS/MS assays.

[4] = In vitro stability of OT-551 in rabbit plasma; assay type: in vitro ADME
Description: as §1, §2

[5] = In vitro stability of OT-551 in dog plasma; assay type: in vitro ADME
Description: as §1, §2

[6] = Single-dose 10-minute intravenous infusion toxicokinetics of OT-551; assay type: in vivo, Sprague-Dawley rats
Description: Blood for toxicokinetic evaluations was collected at pre-determined time points during and after the infusion. Plasma samples were analyzed for OT-551 and TP-H using validated LC/MS/MS assays. Descriptive toxicokinetic parameters were determined by standard model independent methods (Gilbaldi and Perrier, 1982) based on the plasma concentration-time data. […] The plasma concentrations were rounded to the nearest tenth of a ng/mL before the calculations. […] Nominal time points were used for all calculations. Since there was no apparent gender difference in the plasma concentrations of OT-551 and TP-H, the data for male and female rats at each sampling time point were pooled.

[7] = Sprague-Dawley rats, 10-minute iv infusion of OT-551 10 mg/kg

CC1(C)CC(O)CC(C)(C)N1O [TEMPOL-H]
Mean Percent Inhibition of TNF-alpha using 5 ng/mL LPS [1]: 74 ± 8%
inhibition of bFGF-induced angiogenesis ([2]; 100-400 μg): dose-dependent inhibition
Mean % Inhibition ± SD ([2]; 100 μg): 20 ± 12%
Mean Branch points ± SEM ([2]; 100 μg): 172 ± 12.4
Mean % Inhibition ± SD ([2]; 200 μg): 45.3 ± 7.5 %
Mean Branch points ± SEM ([2]; 200 μg): 147.2 ± 7.5
Mean % Inhibition ± SD ([2]; 400 μg): 58.7 ± 10.9 %
Mean Branch points ± SEM ([2]; 400 μg): 133.8 ± 10.8
Mean % Inhibition ± SD ([2]; 800 μg): 28.1 ± 6.8 %
Mean Branch points ± SEM ([2]; 800 μg): 164.2 ± 6.7
Concentrations (ng/mL) of TP-H in Rat Plasma ([3]; OT-551 incubation time 0 min): 10.23 ± 1.59 ng/mL
Concentrations (ng/mL) of TP-H in Rat Plasma ([3]; OT-551 incubation time 5 min): 30.47 ± 1.65 ng/mL
Concentrations (ng/mL) of TP-H in Rat Plasma ([3]; OT-551 incubation time 10 min): 50.91 ± 2.11 ng/mL
Concentrations (ng/mL) of TP-H in Rat Plasma ([3]; OT-551 incubation time 20 min): 86.30 ± 3.30 ng/mL
Concentrations (ng/mL) of TP-H in Rat Plasma ([3]; OT-551 incubation time 30 min): 119.63 ± 7.08 ng/mL
Concentrations (ng/mL) of TP-H in Rat Plasma ([3]; OT-551 incubation time 60 min): 201.94 ± 4.19 ng/mL
Concentrations (ng/mL) of TP-H in Rat Plasma ([3]; OT-551 incubation time 120 min): 304.66 ± 7.27 ng/mL
Concentrations (ng/mL) of TP-H in Rat Plasma ([3]; OT-551 incubation time 240 min): 362.66 ± 7.50 ng/mL
Concentrations (ng/mL) of TP-H in Rabbit Plasma ([4]; OT-551 incubation time 0 min): 270.55 ± 35.45 ng/mL
Concentrations (ng/mL) of TP-H in Rabbit Plasma ([4]; OT-551 incubation time 5 min): 587.17 ± 21.99 ng/mL
Concentrations (ng/mL) of TP-H in Rabbit Plasma ([4]; OT-551 incubation time 10 min): 604.21 ± 21.99 ng/mL
Concentrations (ng/mL) of TP-H in Rabbit Plasma ([4]; OT-551 incubation time 20 min): 590.06 ± 40.97 ng/mL
Concentrations (ng/mL) of TP-H in Rabbit Plasma ([4]; OT-551 incubation time 30 min): 533.01 ± 117.40 ng/mL
Concentrations (ng/mL) of TP-H in Rabbit Plasma ([4]; OT-551 incubation time 60 min): 569.19 ± 32.96 ng/mL
Concentrations (ng/mL) of TP-H in Rabbit Plasma ([4]; OT-551 incubation time 120 min): 525.63 ± 10.31 ng/mL
Concentrations (ng/mL) of TP-H in Rabbit Plasma ([4]; OT-551 incubation time 240 min): 477.54 ± 40.95 ng/mL
Concentrations (ng/mL) of TP-H in Dog Plasma ([5]; OT-551 incubation time 0 min): 0.00 ± 0.00 ng/mL
Concentrations (ng/mL) of TP-H in Dog Plasma ([5]; OT-551 incubation time 5 min): 5.85 ± 0.73 ng/mL
Concentrations (ng/mL) of TP-H in Dog Plasma ([5]; OT-551 incubation time 10 min): 8.77 ± 0.65 ng/mL
Concentrations (ng/mL) of TP-H in Dog Plasma ([5]; OT-551 incubation time 20 min): 12.79 ± 0.74 ng/mL
Concentrations (ng/mL) of TP-H in Dog Plasma ([5]; OT-551 incubation time 30 min): 16.22 ± 0.67 ng/mL
Concentrations (ng/mL) of TP-H in Dog Plasma ([5]; OT-551 incubation time 60 min): 25.68 ± 1.04 ng/mL
Concentrations (ng/mL) of TP-H in Dog Plasma ([5]; OT-551 incubation time 120 min): 39.31 ± 1.09 ng/mL
Concentrations (ng/mL) of TP-H in Dog Plasma ([5]; OT-551 incubation time 240 min): 53.92 ± 1.68 ng/mL
peak plasma concentration of TP-H at the end of the OT-551 infusion ([6]; 10 mg/kg OT-551): 2481.7 ng/mL
plasma levels of TP-H at 4 hr post infusion ([6]; 10 mg/kg OT-551): still quantifiable
terminal elimination half-life of TP-H ([6]; 10 mg/kg OT-551): 24 min
peak plasma concentration of TP-H at the end of the OT-551 infusion ([6]; 30 mg/kg OT-551): 8337.7 ng/mL
peak plasma concentration of TP-H at the end of the OT-551 infusion ([6]; 100 mg/kg OT-551): 29020.8 ng/mL
peak plasma concentration of TP-H at the end of the OT-551 infusion ([6]; 200 mg/kg OT-551): 60802.1 ng/mL
levels of TP-H four hours after terminating the infusion relative to concentrations immediately after terminating the infusion ([6]; 30, 100 and 200 mg/kg OT-551): less than 1%
Mean ± SD Plasma Concentrations of TP-H ([6]; OT-551 10 mg/kg iv infusion, 1.167 hr): 204.7 ± 85.6 ng/mL
Mean ± SD Plasma Concentrations of TP-H ([6]; OT-551 10 mg/kg iv infusion, 2.167 hr): 25.2 ± 24.0 ng/mL
Mean ± SD Plasma Concentrations of TP-H ([6]; OT-551 10 mg/kg iv infusion, 4.167 hr): 4.2 ± 10.3 ng/mL
Mean ± SD Plasma Concentrations of TP-H ([6]; OT-551 30 mg/kg iv infusion, 4.167 hr, n = 5): 53.8 ± 29.7 ng/mL
Mean ± SD Plasma Concentrations of TP-H ([6]; OT-551 100 mg/kg iv infusion, 4.167 hr): 160.0 ± 97.5 ng/mL
Mean ± SD Plasma Concentrations of TP-H ([6]; OT-551 200 mg/kg iv infusion, 4.167 hr): 524.5 ± 237.0 ng/mL
AUC(0-4.167 hr) of TP-H [6, 7]: 1694.8 ng·h/mL
Cmax of TP-H [6, 7]: 2481.7 ng/mL
T½ of TP-H ([6]; Sprague-Dawley rats, 10-minute iv infusion of OT-551 10 mg/kg, elimination half-life): 24 min
AUC of TP-H ([6]; Sprague-Dawley rats, 10-minute iv infusion of OT-551 10 mg/kg, to time infinity): 1697.5 ng·h/mL
Cmax of TP-H ([6]; Sprague-Dawley rats, 10-minute iv infusion of OT-551 30 mg/kg): 8337.7 ng/mL
Cmax of TP-H ([6]; Sprague-Dawley rats, 10-minute iv infusion of OT-551 100 mg/kg): 29020.8 ng/mL
Cmax of TP-H ([6]; Sprague-Dawley rats, 10-minute iv infusion of OT-551 200 mg/kg): 60802.2 ng/mL
Mean ± SD Plasma Concentrations of TP-H ([6]; Sprague-Dawley rats, single 10-minute iv infusion of OT-551 10 mg/kg, 0.167 hr from start of infusion): 2481.7 ± 325.8 ng/mL
Mean ± SD Plasma Concentrations of TP-H ([6]; Sprague-Dawley rats, single 10-minute iv infusion of OT-551 30 mg/kg, 0.167 hr, n = 5): 8337.7 ± 2099.5 ng/mL
Mean ± SD Plasma Concentrations of TP-H ([6]; Sprague-Dawley rats, single 10-minute iv infusion of OT-551 100 mg/kg, 0.167 hr): 29020.8 ± 11713.7 ng/mL
Mean ± SD Plasma Concentrations of TP-H ([6]; Sprague-Dawley rats, single 10-minute iv infusion of OT-551 200 mg/kg, 0.167 hr): 60802.2 ± 8922.5 ng/mL
Tmax of TP-H ([6]; rat, in vivo, iv): 10 min
